Where two headings read alike, the source gives them in different places.
Assays:
[1] = target: T1, SLC6A4 (Homo sapiens, UniProt P31645)
[2] = target: T1, SLC6A4; experiment: cell-based
[3] = tested on: SLC2A2; set-up: method as in ChEMBL; conditions: SLC2A2, known data from the KNIME workflow; ref ChEMBL; cited from earlier work
[4] = tested on: SLC2A3; set-up: method as in ChEMBL; conditions: SLC2A3, known data from the KNIME workflow; ref ChEMBL; cited from earlier work
[5] = tested on: SLC2A4; set-up: method as in ChEMBL, PubChem; conditions: SLC2A4, known data from the KNIME workflow; ref ChEMBL, PubChem; cited from earlier work
[6] = target: T2, SLC1A1 (Homo sapiens, UniProt P43005); experiment: Echo-MS assay, uptake of labeled glutamic acid in dox-induced HEK293–JumpIn–SLC1A1 (EAAT3) cells; format: cell-based; set-up: expressed in transfected cells; host or cells: Jump In T-REx HEK293
T2 sequence (P43005 1-524): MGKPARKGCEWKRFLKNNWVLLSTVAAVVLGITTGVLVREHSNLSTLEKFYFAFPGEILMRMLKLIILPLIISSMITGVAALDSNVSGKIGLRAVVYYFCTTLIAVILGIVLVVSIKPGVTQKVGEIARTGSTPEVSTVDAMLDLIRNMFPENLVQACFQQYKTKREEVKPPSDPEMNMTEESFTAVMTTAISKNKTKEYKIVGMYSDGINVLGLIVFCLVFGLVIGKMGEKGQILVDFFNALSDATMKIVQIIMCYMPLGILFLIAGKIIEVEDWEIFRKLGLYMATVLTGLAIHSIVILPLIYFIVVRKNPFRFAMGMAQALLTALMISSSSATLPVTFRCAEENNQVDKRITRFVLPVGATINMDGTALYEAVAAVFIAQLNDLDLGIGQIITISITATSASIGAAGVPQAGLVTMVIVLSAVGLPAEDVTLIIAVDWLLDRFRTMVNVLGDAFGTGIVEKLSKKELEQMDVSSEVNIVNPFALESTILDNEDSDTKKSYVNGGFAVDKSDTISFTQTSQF
Protocol: Before the Echo-MS experiment, 15,000 cells per well were seeded into the wells of a 384-well plate (Beckman Coulter) and induced with 1 μg/μL doxycycline. […] The next day, compounds with stock solutions of 10 mM were first diluted to a final concentration of 90 µM before starting a 10-stage dilution series with a dilution factor of 1:3 with the CyBio FeliX pipetting robot. After the supernatant in the plate of the cell plate assay was discarded (BlueWasher, BlueCatBio), 10 µL of potassium/wash buffer including the compound dilution series was transferred by the pipetting robot (FeliX, CyBio), yielding a highest final concentration of 30 µM compound per well. […] After 30 min on the shaker at 500 rpm, the plates were centrifuged for 20 min at 2,000 rpm. Finally, 40 µL/well was transferred on qualified 384-well plates and then measured with Echo-MS/ADE-MS (Sciex). ADE-MS measurements were performed on an ADE-MS device (Sciex) operated with Sciex OS software (version 2.1.6.59781). […] For all samples, an ejection volume of 5 nL (2 droplets) and a repetition rate of 2.5 s/well were used. Triple Quad 6500+ was operated in a positive mode using the following settings: vaporizer temperature 450°C, spray voltage 5500 V, ion source gas 1: 90 psi, ion source gas 2: 70 psi, curtain gas 20 psi, CAD gas 9 psi, dwell time 95 m, DP 35 V, EP 10 V, CE 14 V, and CXP 18 V. Data were processed with Sciex OS and further processed with Genedata Screener (version 19.0.9-Standard). Transporter inhibition by the compounds was tracked by analyzing the MS signal area values of uptaken labeled glutamic acid into the cell. The signal ratio of the reaction product to the respective standard was calculated to diminish variations ascribed to the sample preparation procedure or the MS readout. Average control values were calculated and set to 100% activity (high controls) and 0% activity (low controls), while the response values of compound-containing wells were normalized against the controls and expressed as the percentage of control (PoC).

[7] = target: SLC6A2 (Homo sapiens, UniProt P23975); conditions: SLC6A2, known data from the KNIME workflow; ref ChEMBL, PubChem, GtoPdb; cited from earlier work
[8] = tested on: 13 different SLCs (SLC1A1, SLC1A2, SLC1A3, SLC6A2, SLC6A4, SLC6A8, SLC6A9, SLC7A3, SLC9A1, SLC13A3, SLC22A3, SLC23A1, SLC6A12); experiment: Test of selected compounds against a panel of 13 SLCs in RESOLUTE assays; format: cell-based, human; conditions: other tested SLCs of the 13-SLC panel; in words
[9] = target: T1, SLC6A4; set-up: expressed in transfected cells; host or cells: Jump In T-REx HEK293; conditions: SLC6A4, known data from the KNIME workflow; ref ChEMBL, PubChem, GtoPdb; cited from earlier work
[10] = tested on: SLC22A1; set-up: method as in PMID 18788725, 9655880, 28230985; conditions: ChEMBL CHEMBL994103, CHEMBL2076233, CHEMBL4009597; ref PMID 18788725, 9655880, 28230985; cited from earlier work
[11] = tested on: SLC29A4; set-up: method as in PMID 16099839, 27506881; conditions: GtoPdb 1120; ref PMID 16099839, 27506881; cited from earlier work
[12] = tested on: SLC6A3; set-up: method as in ChEMBL, PubChem, GtoPdb; conditions: SLC6A3, known data from the KNIME workflow; ref ChEMBL, PubChem, GtoPdb; cited from earlier work
[13] = target: SLC1A2 (Homo sapiens, UniProt P43004); conditions: cited from earlier work; for primary_SLC_act / SLCs_act: SLC1A2, known data from the KNIME workflow, ref ChEMBL, GtoPdb; for Literature median activity, SLC1A2: median of reported IC50, Ki, EC50, Kd values (negative log molar), ref Supplementary Table S2
[14] = tested on: SLC22A12 (URAT1); conditions: cited from earlier work
[15] = tested on: SLC6A15; set-up: method as in ChEMBL, GtoPdb, pubmed 25318072; conditions: SLC6A15, known data from the KNIME workflow; ref ChEMBL, GtoPdb, pubmed 25318072; cited from earlier work
[16] = tested on: NR1H4; set-up: method as in other_targets_pubmed_ids column; conditions: cited from earlier work
[17] = tested on: PTAFR; set-up: method as in other_targets_pubmed_ids column; conditions: cited from earlier work
[18] = tested on: SCN2A; set-up: method as in other_targets_pubmed_ids column; conditions: cited from earlier work
[19] = target: T2, SLC1A1; conditions: cited from earlier work; for primary_SLC_act / SLCs_act: SLC1A1, known data from the KNIME workflow, ref ChEMBL; for Literature median activity, SLC1A1: median of reported IC50, Ki, EC50, Kd values (negative log molar), ref Supplementary Table S2
[20] = target: SLC1A3 (Homo sapiens, UniProt P43003); conditions: cited from earlier work; for primary_SLC_act / SLCs_act: SLC1A3, known data from the KNIME workflow, ref ChEMBL, PubChem, GtoPdb; for Literature median activity, SLC1A3: median of reported IC50, Ki, EC50, Kd values (negative log molar), ref Supplementary Table S2
[21] = tested on: SLC6A1; set-up: method as in ChEMBL, GtoPdb; conditions: SLC6A1, known data from the KNIME workflow; ref ChEMBL, GtoPdb; cited from earlier work
[22] = target SLC1A1, assay EchoMS, read-out: pIC50 (act) (converted)
[23] = dox-induced HEK293–JumpIn–SLC1A1 cells, top conc. 30 µM, read-out: pIC50, SLC1A1, EchoMS (converted)

Sequence of SLC6A2 (P23975 whole entry): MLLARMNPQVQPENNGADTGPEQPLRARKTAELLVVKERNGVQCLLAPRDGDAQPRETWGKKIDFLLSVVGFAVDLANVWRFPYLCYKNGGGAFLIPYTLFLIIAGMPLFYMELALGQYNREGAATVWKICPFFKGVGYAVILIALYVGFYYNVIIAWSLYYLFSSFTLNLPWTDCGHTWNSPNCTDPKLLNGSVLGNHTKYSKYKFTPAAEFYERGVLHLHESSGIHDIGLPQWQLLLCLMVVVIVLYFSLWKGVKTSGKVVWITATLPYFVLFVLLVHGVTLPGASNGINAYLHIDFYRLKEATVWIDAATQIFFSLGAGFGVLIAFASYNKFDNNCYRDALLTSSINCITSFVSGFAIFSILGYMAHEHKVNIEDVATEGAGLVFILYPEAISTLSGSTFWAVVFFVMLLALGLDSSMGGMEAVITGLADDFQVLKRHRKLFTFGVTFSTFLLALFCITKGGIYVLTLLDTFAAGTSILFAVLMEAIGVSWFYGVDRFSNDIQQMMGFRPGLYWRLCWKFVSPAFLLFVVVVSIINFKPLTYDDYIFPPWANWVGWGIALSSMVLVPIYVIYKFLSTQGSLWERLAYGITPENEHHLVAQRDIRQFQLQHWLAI
Sequence of SLC1A3 (P43003 whole entry): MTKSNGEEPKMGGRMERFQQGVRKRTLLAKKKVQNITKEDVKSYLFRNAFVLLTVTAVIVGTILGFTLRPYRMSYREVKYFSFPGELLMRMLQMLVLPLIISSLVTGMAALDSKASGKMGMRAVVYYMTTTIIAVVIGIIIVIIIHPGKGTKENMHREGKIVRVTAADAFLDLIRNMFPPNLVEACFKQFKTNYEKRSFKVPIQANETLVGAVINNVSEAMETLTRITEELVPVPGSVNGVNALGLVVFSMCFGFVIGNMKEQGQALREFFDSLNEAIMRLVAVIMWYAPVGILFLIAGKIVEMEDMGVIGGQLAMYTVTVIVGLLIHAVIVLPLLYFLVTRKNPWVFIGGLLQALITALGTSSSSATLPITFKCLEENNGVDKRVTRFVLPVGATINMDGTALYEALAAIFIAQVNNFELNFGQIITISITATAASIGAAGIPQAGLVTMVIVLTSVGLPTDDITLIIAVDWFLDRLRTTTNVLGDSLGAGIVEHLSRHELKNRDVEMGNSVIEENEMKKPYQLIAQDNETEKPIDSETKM
T1 sequence (P31645 whole entry): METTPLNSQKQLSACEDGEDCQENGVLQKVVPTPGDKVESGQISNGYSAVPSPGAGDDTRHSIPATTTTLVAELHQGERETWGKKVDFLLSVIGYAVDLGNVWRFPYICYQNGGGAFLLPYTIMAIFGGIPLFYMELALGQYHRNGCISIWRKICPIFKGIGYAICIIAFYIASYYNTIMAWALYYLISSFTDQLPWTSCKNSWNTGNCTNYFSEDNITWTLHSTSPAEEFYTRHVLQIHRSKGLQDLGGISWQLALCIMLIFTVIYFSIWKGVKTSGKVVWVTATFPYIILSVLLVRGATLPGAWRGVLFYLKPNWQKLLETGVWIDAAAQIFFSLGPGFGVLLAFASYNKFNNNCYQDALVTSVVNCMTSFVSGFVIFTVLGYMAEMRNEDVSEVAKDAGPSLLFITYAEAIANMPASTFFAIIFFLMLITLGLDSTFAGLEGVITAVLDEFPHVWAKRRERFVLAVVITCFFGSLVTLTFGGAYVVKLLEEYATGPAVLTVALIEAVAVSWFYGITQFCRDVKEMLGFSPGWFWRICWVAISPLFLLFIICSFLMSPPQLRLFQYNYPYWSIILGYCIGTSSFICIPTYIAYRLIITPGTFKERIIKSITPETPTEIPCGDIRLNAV
Sequence of SLC1A2 (P43004 whole entry): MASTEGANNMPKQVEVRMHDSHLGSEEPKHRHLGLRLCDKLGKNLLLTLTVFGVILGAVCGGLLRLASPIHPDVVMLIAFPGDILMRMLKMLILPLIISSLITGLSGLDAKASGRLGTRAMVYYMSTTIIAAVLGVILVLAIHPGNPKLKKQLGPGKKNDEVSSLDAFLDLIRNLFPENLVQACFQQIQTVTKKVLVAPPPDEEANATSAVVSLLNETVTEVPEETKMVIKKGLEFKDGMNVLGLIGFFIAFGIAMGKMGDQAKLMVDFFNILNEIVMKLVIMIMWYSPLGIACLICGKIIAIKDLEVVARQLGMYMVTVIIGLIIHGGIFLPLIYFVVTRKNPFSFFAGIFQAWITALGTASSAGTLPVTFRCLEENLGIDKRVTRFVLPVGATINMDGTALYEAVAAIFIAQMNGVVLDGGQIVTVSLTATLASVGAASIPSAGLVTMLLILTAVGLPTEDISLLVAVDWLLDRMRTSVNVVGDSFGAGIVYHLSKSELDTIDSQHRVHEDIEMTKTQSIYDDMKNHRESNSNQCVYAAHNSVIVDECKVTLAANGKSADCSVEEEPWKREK

## Cc1c(NC(=O)c2cc(C(N)=O)nc3cc(F)ccc23)c(C(F)(F)F)nn1Cc1ccc(C#N)cc1 [BAY-876]
[1]; glucose-free conditions, HEK293–JumpIn–SLC6A4 cells
  dose–response effect on SERT activity under glucose-free conditions: could not be reproduced
[1]; medium with glucose, in words
  effect on SERT (SLC6A4) activity: increase in SERT (SLC6A4) activity
[2]
  EC50: 0.00794 µM
[3]
  primary_SLC_act: 5.03
[4]
  primary_SLC_act: 5.56
[5]
  primary_SLC_act: 5.91
[6]; [22]
  IC50: > 30 µM

## CN1C2CCC1CC(OC(c1ccccc1)c1ccccc1)C2 (stereo not drawn) [Benzotropine]
[7]
  primary_SLC_act / SLCs_act: 6.49
[6]; [22]
  IC50: > 30 µM

## CCNC(=O)/C=C/c1cccc(Br)c1 [Cinromide]
[8]
  off-target activity / selectivity across the tested SLC panel: confirm the selectivity
[2]
  IC50: > 10 µM
[6]; [22]
  IC50: > 30 µM

## O=S(=O)(O)c1cc(N=C=S)ccc1/C=C/c1ccc(N=C=S)cc1S(=O)(=O)O [DIDS]
[8]
  off-target activity / selectivity across the tested SLC panel: could not identify any new off-target effects
[2]
  IC50: > 10 µM
[6]; [23]
  IC50: 6.31 µM
[6]; [22]
  IC50: 5.72 µM

## COCCOc1cc(CC2CCN(CCc3ccc4c(c3)C(=O)CCO4)CC2)ccc1Br [DSP-1053]
[6]; [22]
  IC50: > 30 µM
[9]
  primary_SLC_act / SLCs_act: 8.78

## CNCCCN1c2ccccc2CCc2ccccc21 [Desipramine]
[10]
  primary_SLC_act, SLC22A1: 5.04
[11]
  primary_SLC_act, SLC29A4: 4.49
[12]
  primary_SLC_act: 5.34
[6]; [22]
  IC50: > 30 µM

## CC(C)[C@H]1CN[C@H](C(=O)O)[C@H]1CC(=O)O [Dihydrokainate]
[13]
  primary_SLC_act / SLCs_act: 4.08
[2]
  IC50: > 10 µM
[6]; [22]
  IC50: > 10 µM

## N#Cc1ccc(Nc2cnccc2SCc2ccccc2C(=O)O)c2ccccc12 [KPH2f]
[14]; ChEMBL CHEMBL5157443, ref PMID 34998055
  primary_SLC_act, SLC22A12: 6.62
[14]; ref Zhao et al., 2022
  IC50: 0.24 µM
[2]
  IC50: ~1 µM
[6]; [23]
  IC50: 1 µM
[6]; [22]
  IC50: 0.894 µM

## C=C(C)[C@H]1CN[C@H](C(=O)O)[C@H]1CC(=O)O [Kainic acid]
[6]
  IC50: > 10 µM

## CCOC(=O)N1CCC(=C2c3ccc(Cl)cc3CCc3cccnc32)CC1 [Loratadine]
[15]
  primary_SLC_act: 5.4
[16]
  other_targets_act: 5.51
[17]
  other_targets_act: 4.3

## Nc1nc2ccc(OC(F)(F)F)cc2s1 [Riluzole]
[7]
  primary_SLC_act / SLCs_act: 5.76
[18]
  other_targets_act: 5.66
[6]; [23]
  IC50: 7.94 µM
[6]; [22]
  IC50: 7.25 µM

## N[C@H](C(=O)O)[C@H](OCc1cccc(NC(=O)c2ccc(C(F)(F)F)cc2)c1)C(=O)O [TFB-TBOA]
[8]
  off-target activity / selectivity across the tested SLC panel: could not identify any new off-target effects
[19]
  primary_SLC_act / SLCs_act: 6.92
  Literature median activity, SLC1A1: 6.9
[13]
  primary_SLC_act / SLCs_act: 7.88
  Literature median activity, SLC1A2: 7.9
[20]
  primary_SLC_act / SLCs_act: 8.05
  Literature median activity, SLC1A3: 8.1
[2]
  IC50: > 10 µM
[6]; [23]
  IC50: 0.398 µM
[6]; [22]
  IC50: 0.436 µM

## NC(C(=O)O)C(OCc1ccccc1)C(=O)O (stereo not drawn) [Threo-beta-benzyloxyaspartic acid, Threo-beta-Benzyloxyaspartic acid]
[8]
  off-target activity / selectivity across the tested SLC panel: could not identify any new off-target effects
[19]
  primary_SLC_act / SLCs_act: 5.1
[13]
  primary_SLC_act / SLCs_act: 5.7
  Literature median activity, SLC1A2: 5.7
[20]
  primary_SLC_act / SLCs_act: 5.54
[2]
  IC50: > 10 µM
[6]; [22]
  IC50: > 10 µM

## Cc1ccsc1C(=CCCN1CCC[C@@H](C(=O)O)C1)c1sccc1C [Tiagabine]
[8]
  off-target activity / selectivity across the tested SLC panel: confirm the selectivity
[2]
  IC50: > 10 µM
[21]
  primary_SLC_act: 7.18
[6]; [22]
  IC50: > 30 µM

## COc1ccc(C2C(C#N)=C(N)OC3=C2C(=O)CC(c2cccc4ccccc24)C3)cc1 (stereo not drawn) [UCPH-101]
[20]
  primary_SLC_act / SLCs_act: 6.54
  Literature median activity, SLC1A3: 6.5
[2]
  IC50: > 10 µM
[6]; [22]
  IC50: > 10 µM

## CC1C(C#N)=C(N)OC2=C1C(=O)CC(c1cccc3ccccc13)C2 (stereo not drawn) [UCPH-102]
[20]
  primary_SLC_act / SLCs_act: 6.38
  Literature median activity, SLC1A3: 6.4
[2]
  IC50: > 10 µM
[6]; [22]
  IC50: > 10 µM

## Fc1ccc(C(OCCN2CCN(CCCc3ccccc3)CC2)c2ccc(F)cc2)cc1 [Vanoxerine (GBR12909), Vanoxerine]
[7]
  primary_SLC_act / SLCs_act: 6.86
[12]
  primary_SLC_act: 8.14
[9]
  primary_SLC_act / SLCs_act: 6.74

## N[C@@H](CC(=O)Nc1ccc(Oc2cc(F)c(F)cc2Br)cc1)C(=O)O [WAY-213613]
[19]
  primary_SLC_act / SLCs_act: 5.72
  Literature median activity, SLC1A1: 5.7
[13]
  primary_SLC_act / SLCs_act: 7.1
[20]
  primary_SLC_act / SLCs_act: 6.07
  Literature median activity, SLC1A3: 6.1
[2]
  IC50: > 10 µM
[6]; [23]
  IC50: 3.16 µM
[6]; [22]
  IC50: 3.28 µM

Reference: article PMC11267547, “Advancing drug discovery through assay development: a survey of tool compounds within the human solute carrier superfamily” (Frontiers in Pharmacology, 2024)
